Target: T1, bovine pancreatic trypsin (Bos taurus, UniProt P00760)
T1 sequence (P00760 24-246): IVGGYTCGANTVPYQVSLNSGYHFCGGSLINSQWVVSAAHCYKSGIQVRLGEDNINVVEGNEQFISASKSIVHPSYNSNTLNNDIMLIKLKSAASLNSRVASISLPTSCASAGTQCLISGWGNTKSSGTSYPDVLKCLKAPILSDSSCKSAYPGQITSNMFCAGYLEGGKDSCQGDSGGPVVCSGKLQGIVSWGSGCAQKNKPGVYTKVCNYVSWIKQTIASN
Assay: fluorogenic AMC substrate hydrolysis, kinetic read, non-linear regression
Assay type: biochemical

SMILES | IC50 [µM]
C=CC1=C(C)/C(=C/C2=NC(=C\c3[nH]c(/C=C4\NC(=O)C(C)=C4C=C)c(C)c3CCC(=O)O)/C(CCC(=O)O)=C2C)NC1=O [Biliverdin] | 12.7
CCC1=C(C)/C(=C/c2[nH]c(Cc3[nH]c(/C=C4\NC(=O)C(C)=C4CC)c(C)c3CCC(=O)O)c(CCC(=O)O)c2C)NC1=O [Mesobilirubin] | 3.86
C=CC1=C(C)/C(=C/c2[nH]c(Cc3[nH]c(/C=C4\NC(=O)C(C)=C4C=C)c(C)c3CCC(=O)O)c(CCC(=O)O)c2C)NC1=O [Unconjugated Bilirubin] | 3.48
CCC1=C(C)C(Cc2[nH]c(Cc3[nH]c(CC4NC(=O)C(C)=C4CC)c(C)c3CCC(=O)O)c(CCC(=O)O)c2C)NC1=O (stereo not shown) [Urobilinogen] | 4.83

From article PMC9081267 (Nature microbiology, 2022)
